This note sets out measurements from ChEMBL document CHEMBL2034862, “Exploring the binding sites of glycogen synthase kinase 3. Identification and characterization of allosteric modulation cavities” (J Med Chem, 2011).

Activity calls are given as the source filed them. The calls are words filed in the database; no cut-off is given here.

In assay [1] the target is T1, Glycogen synthase kinase-3 beta (Homo sapiens, UniProt P49841). Put plainly: Non-competitive inhibition of human recombinant GSK3beta using GS2 as substrate after 10 mins by Glow type luminescence analysis in presence of 1 uM ATP.
Target sequence in this assay (P49841 whole entry, looked up): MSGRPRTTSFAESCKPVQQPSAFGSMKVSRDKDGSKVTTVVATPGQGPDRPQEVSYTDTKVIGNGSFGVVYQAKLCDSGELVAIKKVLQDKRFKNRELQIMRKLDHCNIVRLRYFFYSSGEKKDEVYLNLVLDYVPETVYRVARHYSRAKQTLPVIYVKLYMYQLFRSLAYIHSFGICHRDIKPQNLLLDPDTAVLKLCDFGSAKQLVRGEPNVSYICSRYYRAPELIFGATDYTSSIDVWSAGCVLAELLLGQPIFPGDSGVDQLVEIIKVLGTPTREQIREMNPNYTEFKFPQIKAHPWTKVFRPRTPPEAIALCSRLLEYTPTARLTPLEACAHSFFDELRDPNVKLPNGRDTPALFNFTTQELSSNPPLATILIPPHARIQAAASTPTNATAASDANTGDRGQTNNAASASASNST
Assay [2] addresses T1, Glycogen synthase kinase-3 beta. Put plainly: Inhibition of human recombinant GSK3beta incubated for 30 mins by Kinase Glo luminescent kinase assay. Background: Kinase-Glo measures the ATP left after a reaction by luminescence.
Target sequence in this assay (P49841 whole entry): as the sequence (P49841 whole entry, looked up) above
Assay [3] has the same target. Put plainly: Reversible inhibition of human recombinant GSK3beta using GS2 as substrate after 10 mins by Glow type luminescence analysis.
Target sequence in this assay (P49841 whole entry, looked up): as above
Assay [4] has the same target. Nature of the assay: Non-competitive inhibition of human recombinant GSK3beta using GS2 as substrate after 10 mins by Glow type luminescence analysis in presence of 1 to 50 uM ATP.
Target sequence in this assay (P49841 whole entry, looked up): as above
The target is the same in assay [5]. Put plainly: Non-competitive inhibition of human recombinant GSK3beta using GS2 as substrate after 10 mins by Glow type luminescence analysis.
Target sequence in this assay (P49841 whole entry, looked up): as above

For `CCCCCCCCCCCC(=O)NNC(=O)c1c(O)c2ccccc2n(CC)c1=O`, the inhibition entry in assay [1], in assay [3], in assay [4] and in assay [5] was “Active” throughout. Also, the IC50 in assay [2] came out at 3.01 µM.

Usually IC50 stands for the concentration that gives 50% inhibition.
